Molecules are shown by their SMILES.

T1 sequence (P43116 whole entry): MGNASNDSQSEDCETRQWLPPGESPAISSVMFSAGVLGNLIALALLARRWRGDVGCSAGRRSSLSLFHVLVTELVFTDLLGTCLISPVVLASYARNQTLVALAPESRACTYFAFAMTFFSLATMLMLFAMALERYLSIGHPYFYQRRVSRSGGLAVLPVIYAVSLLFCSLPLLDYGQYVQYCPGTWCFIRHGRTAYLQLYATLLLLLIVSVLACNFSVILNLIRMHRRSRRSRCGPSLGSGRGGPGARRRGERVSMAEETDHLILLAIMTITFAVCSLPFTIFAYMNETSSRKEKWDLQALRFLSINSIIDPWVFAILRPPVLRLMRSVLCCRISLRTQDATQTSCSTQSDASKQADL

This assay concerns the target T1, recombinant human EP-2 receptor (Homo sapiens, UniProt P43116).
T1 construct: cell line stably transfected with full length cDNA encoding human Prostaglandin E2 was established; expressed in transfected cells; host or cells: CHO (Chinese hamster ovary) cells, stably transfected
The assay can be described thus: in vitro antagonist potency against recombinant human EP-2 receptor in CHO cells (cAMP, Protocol 1). The conditions noted are these: functional Ki by Cheng-Prusoff from IC50; CHO cells stimulated with PGE2 (5 nM); cAMP readout; read-out: EP2 Ki. The assay is classed as cell-based. An excerpt:
1.0 Measurement of in vitro Antagonist Potency (IC50) of Compounds Against Recombinant Human Prostaglandin E2 Receptor in CHO Cells
The prostaglandin E2 (EP-2) receptor is Gs coupled and agonism of the receptor by PGE2 results in activation of intracellular adenylate cyclase enzymes that synthesise the second messenger signalling molecule, adenosine 3′,5′-cyclic monophosphate (cAMP). […] Decreases in cAMP levels following treatment of stimulated recombinant EP-2 cells with potential antagonist compounds were measured and potency (IC50) calculated as follows. A Chinese hamster ovary (CHO) cell line stably transfected with full length cDNA encoding human Prostaglandin E2 was established using standard molecular biology methods. Test compounds were dissolved in dimethyl sulphoxide (DMSO) at 4 mM. 11 point half log unit increment dilution series of test compound were prepared in DMSO then diluted 1 in 40 in a buffer comprised of phosphate buffered saline (PBS) and 0.05% pluronic F-127 surfactant. Freshly cultured cells at 80-90% confluence were harvested and re-suspended in 90% growth media/10% DMSO. The cells were frozen using a planar freezer and stored in frozen aliquots in cryovials in liquid nitrogen until the day of the experiment. A vial of cells was defrosted in a 37° C. water bath for 2 min, then transferred to 10 ml of Dulbecco's Modified Eagle's Medium (DMEM). The cells were then centrifuged for 5 min at 1000 g and the pellet re-suspended at 1,000,000 cells/ml in DMEM. 5,000 cells (5 ul) were added to 5 ul of the compound dilution series in a 384 well assay plate and pre-incubated for 30 min at 37° C. 5 ul of agonist (15 nM PGE2 in PBS to give 5 nM FAC) was added and plates further incubated for 90 min at 37° C. The relative cAMP concentration in each well was then measured using a ? -galactosidase enzyme fragment complementation method purchased in kit form as the Discoverx cAMP II kit from GE Healthcare, UK. […] Sigmoidal curves were fitted to plots of log10 inhibitor concentration vs. percent effect. IC50 estimates were determined as the concentration of test compound giving an effect half way between the bottom and top asymptotes of the sigmoidal dose response curve. Each experiment included an IC50 determination for the literature compound as a standard to track assay consistency and allow fair comparison between values obtained in different experiments. The EC50 of PGE2 is used in combination with the ligand concentration in the assay to determine Ki values for antagonist dose responses using the Cheng-Prusoff equation. Consequently an agonist dose response curve is carried out for each experiment using the same incubation as the antagonist plate.
By Ki is commonly meant a measure of affinity in units of concentration, obtained from inhibition or displacement. With `COc1ccc2cc(OCC3(C(=O)O)CN(C(=O)Nc4cccc(F)c4)C3)ccc2c1` [Example 63, 1-{[(3-Fluorophenyl)amino]carbonyl}-3-{[(6-methoxy-2-naphthyl)oxy]methyl}azetidine-3-carboxylic acid], the Ki is 50.6 nM.
For `COc1ccc2cc(OCC3(C(=O)O)CN(C(=O)Nc4cccc(Cl)c4)C3)ccc2c1` [Example 64] the value was 7.5 nM.
For the compound `COc1ccc2cc(OCC3(C(=O)O)CN(C(=O)Nc4ccc(F)cc4)C3)ccc2c1` [Example 65], the Ki was 55.6 nM.
With `COc1ccc2cc(OCC3(C(=O)O)CN(C(=O)Nc4ccccc4F)C3)ccc2c1` [Example 66], the Ki came out at 102 nM.
On to `CCCOc1ccc(OCC2(C(=O)O)CN(C(=O)Nc3cccc(Cl)c3Cl)C2)cc1` [Example 67, 1-{[(2,3-Dichlorophenyl)amino]carbonyl}-3-[(4-propoxyphenoxy)methyl]azetidine-3-carboxylic acid], for which the Ki stood at 110 nM.
As for `CSc1ccc(NC(=O)N2CC(COc3cccc(C)c3C)(C(=O)O)C2)cc1` [Example 68, 3-[(2,3-Dimethylphenoxy)methyl]-1-({[4-(methylthio)phenyl]amino}carbonyl)azetidine-3-carboxylic acid], the inhibition constant Ki worked out at 603 nM.
The same measure for `CCCc1ccc(OCC2(C(=O)O)CN(C(=O)Nc3ccccc3CC)C2)cc1` [Example 69]: 560 nM.
Consider `CCCOc1ccc(OCC2(C(=O)O)CN(C(=O)Nc3cc(C)cc(C)c3)C2)cc1` [Example 71], for which the inhibitory constant (Ki) stood at 587 nM.
Consider `CSc1ccc(NC(=O)N2CC(COc3ccc(C)c4c3CCC4)(C(=O)O)C2)cc1` [Example 72], for which the Ki stood at 748 nM.

The values above are taken from patent publication US20080280877A1, “Azetidines” (Pfizer Inc, priority 2007, published 2008).
